In ChEMBL document CHEMBL1201862, “PubChem BioAssay data set” (2004):
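All cell lines were grown in 96-well plates and treated with compound for 48 hours. Abbreviation: GI50, concentration required for 50% inhibition of growth.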 Active and inactive are the calls of the source. Cut-off read from the data, not from the text of the source: active = GI50 up to about 1.1 µM and inactive = higher.

Legend:
Assay in all cases: NCI anticancer screen, dose series, 48 h
U-251 = test system: U-251
SNB-19 = test system: SNB-19
HCT-116 = test system: HCT-116
A549 = test system: A549
SK-MEL-5 = test system: SK-MEL-5
SF-268 = test system: SF-268
SR = test system: SR
OVCAR-3 = test system: OVCAR-3
UACC-257 = test system: UACC-257
COLO 205 = test system: COLO 205
TK-10 = test system: TK-10
KM12 = test system: KM12
OVCAR-5 = test system: OVCAR-5
HT-29 = test system: HT-29
CCRF-CEM = test system: CCRF-CEM
MDA-MB-231 = test system: MDA-MB-231
Malme-3M = test system: Malme-3M
BT-549 = test system: BT-549
SNB-75 = test system: SNB-75

SMILES | GI50 (U-251) | GI50 (SNB-19) | GI50 (HCT-116) | GI50 (A549) | GI50 (SK-MEL-5) | GI50 (SF-268) | GI50 (SR) | GI50 (OVCAR-3) | GI50 (UACC-257) | GI50 (COLO 205) | GI50 (TK-10) | GI50 (KM12) | GI50 (OVCAR-5) | GI50 (HT-29) | GI50 (CCRF-CEM) | GI50 (MDA-MB-231) | GI50 (Malme-3M) | GI50 (BT-549) | GI50 (SNB-75)
Cc1c(C(=O)O)n2c(S)nnc2c2ccccc12 | > 100 µM (inactive) | > 100 µM (inactive) | > 100 µM (inactive) | > 100 µM (inactive) | > 100 µM (inactive) | > 100 µM (inactive) | > 100 µM (inactive) | > 100 µM (inactive) | > 100 µM (inactive) | > 100 µM (inactive) | > 100 µM (inactive) | > 100 µM (inactive) | > 100 µM (inactive) | > 100 µM (inactive) | > 100 µM (inactive) | > 100 µM (inactive) |  |  | 
O=C1Nc2ccc(Br)cc2/C1=N/N1C(=O)C(=O)N(C2CCCCC2)C1=S | 2.93 µM (inactive) | 9.64 µM (inactive) | 2.72 µM (inactive) | 5.26 µM (inactive) | 4.34 µM (inactive) | 6.7 µM (inactive) | 1.19 µM (inactive) | 2.47 µM (inactive) | 9.55 µM (inactive) | 2.92 µM (inactive) | 12.2 µM (inactive) | 3.48 µM (inactive) | 9.75 µM (inactive) | 2.75 µM (inactive) | 2.21 µM (inactive) | 6.64 µM (inactive) | 3.21 µM (inactive) |  | 
O=C(Cn1c2c(c3ccccc31)CCCC2)N1CCCC1 |  | > 100 µM (inactive) | 63.1 µM (inactive) | > 100 µM (inactive) | 54.3 µM (inactive) |  | 88.9 µM (inactive) | 83.9 µM (inactive) | > 100 µM (inactive) | > 100 µM (inactive) | > 100 µM (inactive) |  | > 100 µM (inactive) | > 100 µM (inactive) |  |  | > 100 µM (inactive) | > 100 µM (inactive) | 
CCOC(=O)/C(C(=S)NC)=C(/N)N1CCCC1 | > 100 µM (inactive) | > 100 µM (inactive) | > 100 µM (inactive) | > 100 µM (inactive) | > 100 µM (inactive) | > 100 µM (inactive) | > 100 µM (inactive) | > 100 µM (inactive) | > 100 µM (inactive) | > 100 µM (inactive) | > 100 µM (inactive) | > 100 µM (inactive) | > 100 µM (inactive) | > 100 µM (inactive) | > 100 µM (inactive) | > 100 µM (inactive) | > 100 µM (inactive) |  | 
N#Cc1c(N)n(-c2cccc(C(=O)O)c2)c(=O)c2cc([N+](=O)[O-])ccc12 | > 100 µM (inactive) | > 100 µM (inactive) | > 100 µM (inactive) | 0.505 µM (active) | > 100 µM (inactive) | > 100 µM (inactive) |  |  | > 100 µM (inactive) | > 100 µM (inactive) | > 100 µM (inactive) | > 100 µM (inactive) |  | > 100 µM (inactive) |  | > 100 µM (inactive) |  | > 100 µM (inactive) | > 100 µM (inactive)
Cn1c(-c2c(C3=CC(=O)N(c4ccccc4)C3=O)c3ccccc3n2C)cc2ccccc21 | > 100 µM (inactive) | > 100 µM (inactive) | > 100 µM (inactive) | > 100 µM (inactive) | > 100 µM (inactive) |  | 17.7 µM (inactive) | > 100 µM (inactive) | > 100 µM (inactive) | > 100 µM (inactive) | > 100 µM (inactive) | 21.8 µM (inactive) | > 100 µM (inactive) | > 100 µM (inactive) | 18.9 µM (inactive) | > 100 µM (inactive) | 7.41 µM (inactive) |  | 55.8 µM (inactive)
COc1ccc(-n2nnnc2C2(Nc3ccccc3)CCN(Cc3ccccc3)CC2)cc1 | 16.4 µM (inactive) | 12.3 µM (inactive) | 7.8 µM (inactive) | 14.2 µM (inactive) | 10.2 µM (inactive) | > 10 µM (inactive) | 5.3 µM (inactive) |  | 13.8 µM (inactive) | 6.82 µM (inactive) | 12.4 µM (inactive) | 3.77 µM (inactive) | 15.7 µM (inactive) | 6.82 µM (inactive) | 18.7 µM (inactive) | 10.4 µM (inactive) | 13.4 µM (inactive) |  | 12.2 µM (inactive)
CC1=C(C#N)C2C(=C(C)N1)C(N)=Nc1ccccc12 (configuration not stated) |  | 37.1 µM (inactive) | 32.6 µM (inactive) | 73.1 µM (inactive) | 30 µM (inactive) | 39.4 µM (inactive) | 41.1 µM (inactive) | 28.4 µM (inactive) | 99.5 µM (inactive) | 42.8 µM (inactive) | 46.8 µM (inactive) | 27.6 µM (inactive) | 70.5 µM (inactive) | 38.3 µM (inactive) | 32.5 µM (inactive) | 31.8 µM (inactive) | 37.8 µM (inactive) |  | 8.17 µM (inactive)
COc1ccc2c3c([nH]c2c1[N+](=O)[O-])C(C)N(Cc1ccccc1)CC3 (configuration not stated) | 2.67 µM (inactive) | 9.1 µM (inactive) | 3.08 µM (inactive) | 5.05 µM (inactive) |  | 2.02 µM (inactive) | 4.49 µM (inactive) | 3.52 µM (inactive) | 2.39 µM (inactive) | 3.17 µM (inactive) | 9.25 µM (inactive) | 3.59 µM (inactive) | 43.3 µM (inactive) | 2.92 µM (inactive) | 2.51 µM (inactive) |  |  |  | 
C1=NN2C(c3ccccc3)=NOC2C2C(c3ccccc3)=NOC12 (configuration not stated) |  | > 100 µM (inactive) | > 100 µM (inactive) | > 100 µM (inactive) | 58.7 µM (inactive) | > 100 µM (inactive) |  | > 100 µM (inactive) | > 100 µM (inactive) | > 100 µM (inactive) | > 100 µM (inactive) | > 100 µM (inactive) | > 100 µM (inactive) |  |  | > 100 µM (inactive) | > 100 µM (inactive) | > 100 µM (inactive) | > 100 µM (inactive)
CN(C)/N=C1/CCC(C(F)(F)F)(C(F)(F)F)O1 | 39 µM (inactive) | 41.8 µM (inactive) | 29.7 µM (inactive) | 37.5 µM (inactive) | 21.9 µM (inactive) | 43.5 µM (inactive) | 17.6 µM (inactive) | 18.5 µM (inactive) |  | 16.7 µM (inactive) | 51.4 µM (inactive) | 20.7 µM (inactive) | 58.1 µM (inactive) | 41.8 µM (inactive) | 30.2 µM (inactive) | 25.4 µM (inactive) | 23.3 µM (inactive) |  | 26.3 µM (inactive)
C(=N\c1ccc(-c2nc3ccccc3s2)cc1)/c1ccc[nH]1 | 14.4 µM (inactive) | 29.4 µM (inactive) | 16.1 µM (inactive) | 25.6 µM (inactive) | 16.7 µM (inactive) | 15.5 µM (inactive) | 21.4 µM (inactive) | 14.7 µM (inactive) | 17.1 µM (inactive) | 16.3 µM (inactive) | 31.8 µM (inactive) | 20.2 µM (inactive) | 22 µM (inactive) | 19.8 µM (inactive) | 21.7 µM (inactive) |  | 18.2 µM (inactive) | 17.3 µM (inactive) | 22.2 µM (inactive)
CC(C)(NC1=NCCO1)c1ccccc1 | > 100 µM (inactive) | 43.4 µM (inactive) | > 100 µM (inactive) | > 100 µM (inactive) | > 100 µM (inactive) | > 100 µM (inactive) |  | > 100 µM (inactive) | > 100 µM (inactive) | > 100 µM (inactive) | > 100 µM (inactive) | > 100 µM (inactive) | > 100 µM (inactive) | > 100 µM (inactive) |  | > 100 µM (inactive) | > 100 µM (inactive) |  | > 100 µM (inactive)
Cc1cc2nn(C3CCCO3)nc2cc1C (configuration not stated) | > 100 µM (inactive) |  | > 100 µM (inactive) | > 100 µM (inactive) | > 100 µM (inactive) | > 100 µM (inactive) | > 100 µM (inactive) | > 100 µM (inactive) | > 100 µM (inactive) | > 100 µM (inactive) | > 100 µM (inactive) |  | > 100 µM (inactive) | > 100 µM (inactive) | > 100 µM (inactive) | > 100 µM (inactive) | > 100 µM (inactive) |  | 69.3 µM (inactive)
CCOC(=O)CCC(NC(=O)c1ccc(Oc2nc3ccccc3nc2-c2ccccc2)cc1)C(=O)OCC (configuration not stated) | 15.1 µM (inactive) | 22 µM (inactive) | 12.9 µM (inactive) | 37.8 µM (inactive) | > 100 µM (inactive) | 6.79 µM (inactive) | > 29.8 µM (inactive) | 15.4 µM (inactive) | > 100 µM (inactive) | > 100 µM (inactive) | 17.5 µM (inactive) | 33.3 µM (inactive) | > 55 µM (inactive) | 2.48 µM (inactive) | > 100 µM (inactive) | 10.6 µM (inactive) | 12.7 µM (inactive) |  | 8.85 µM (inactive)
O=C(NC(O)(C(F)(F)F)C(F)(F)F)c1ccccc1 | > 100 µM (inactive) | > 100 µM (inactive) | > 100 µM (inactive) | > 100 µM (inactive) | > 100 µM (inactive) | > 100 µM (inactive) | > 100 µM (inactive) | > 100 µM (inactive) | > 100 µM (inactive) | > 100 µM (inactive) | > 100 µM (inactive) | > 100 µM (inactive) | > 100 µM (inactive) | > 100 µM (inactive) | > 100 µM (inactive) | > 100 µM (inactive) | > 100 µM (inactive) |  | > 100 µM (inactive)
COc1ccc(/C=C/[N+](=O)[O-])cc1 | 4.03 µM (inactive) | 3.52 µM (inactive) | 6.67 µM (inactive) | 2.51 µM (inactive) | 11.6 µM (inactive) | 2.92 µM (inactive) | 2.03 µM (inactive) | 3.61 µM (inactive) | 2.94 µM (inactive) | 4.04 µM (inactive) | 13 µM (inactive) | 3.18 µM (inactive) | 14.4 µM (inactive) | 3.24 µM (inactive) |  | 19.4 µM (inactive) | 19.1 µM (inactive) |  | 14.9 µM (inactive)
